Test results as given in patent US20210333285A1, “DETECTION OF PHOSPHOKINASE SIGNATURES” (The Regents of the University of California, priority 2018, published 2021).
Like-named read-outs stand apart in the source and are kept apart here.

Tests used:
[1] = test system: BRAF^V600E melanoma cell lines; experiment: Growth response to drug combinations with VEM (Bliss combination index); type: cell-based; conditions: A375 and Sk-Mel-28; VEM + 2nd drug
Description: (a) Summary of possible cell responses to the combination of two drugs. The heatmap on the left represents the experimental effects of combining increasing concentrations of drug A+B as changes in cancer cell growth. The middle graph is a conceptual representation of how differences in effects of drugs alone or combined can be interpreted as either synergistic, additive, or antagonistic (derived from^10). The heatmap on the right represents the calculated combination index from all experimental cell growth data points. We decided to analyze experimental profiles using the Bliss Independence model to calculate combination indices (CI) and avoid inaccuracies from dose-effect curve estimations (CI=log 2 (Eab/(Ea*Eb); synergy CI<0; additivity CI=0; antagonism CI>0) 10-12. (b) Maps of cell growth responses (left) and combination indices (right). We tested the dependency of BRAF^V600E melanoma cell lines for kinases found as differentially active by HT-KAM in patient tumors (FIG. 26a,b). We included everolimus or trametinib (bottom two rows) as experimental ‘positive’ controls and for side-by-side comparison of the effects of other kinase-targeting drugs we tested. Arrows located above and on the left of each cell growth heatmaps serve as indicators of GI50 concentrations for each drug alone.
(§1) To assess the growth/survival response of cell lines to single or combinatorial drug treatments in FIGS. 2-3 and FIGS. 20, 22, 28, 29, we used CellTiter-Glo cell viability assay (Promega; cat #G7571). Cell culture and luminescence readouts were performed in 96- and 384-well plates after 3-day treatments. Drug treatment conditions are described in the text. The effects of drug combinations on cell growth were assessed by calculating drug interaction (D.I.; two-way ANOVA using Prism or Sigma Plot software) and combination index (C.I.; following either the Loewe Additivity^6-9 or Bliss Independence models^[…]). […] We systematically tested the effects of drugs in both regular and low serum culture conditions (i.e. 5% and 0.25% FBS media). To quantitate cell death in FIG. 3 and FIGS. 28-29, FACS analysis of nuclear degradation was performed as previously described^13. Colony formation assay in FIG. 3 and FIG. 30 were performed as previously described^5.

Sk-Mel-28 = experiment: 3-day CellTiter-Glo cell viability assay; type: cell-based; conditions: read-out: GI50, drug alone
Description: as §1

A375 = experiment: 3-day CellTiter-Glo cell viability assay; type: cell-based; conditions: read-out: GI50, drug alone
Description: as §1

AKT1 = target: T1, AKT1 (Homo sapiens, UniProt P31749); experiment: HT-KAM ATP-consumption kinase activity assay with inhibitors; type: biochemical; conditions: control assays, data not shown
T1 construct: purchased SignalChem A16-10G
T1 sequence (P31749 whole entry): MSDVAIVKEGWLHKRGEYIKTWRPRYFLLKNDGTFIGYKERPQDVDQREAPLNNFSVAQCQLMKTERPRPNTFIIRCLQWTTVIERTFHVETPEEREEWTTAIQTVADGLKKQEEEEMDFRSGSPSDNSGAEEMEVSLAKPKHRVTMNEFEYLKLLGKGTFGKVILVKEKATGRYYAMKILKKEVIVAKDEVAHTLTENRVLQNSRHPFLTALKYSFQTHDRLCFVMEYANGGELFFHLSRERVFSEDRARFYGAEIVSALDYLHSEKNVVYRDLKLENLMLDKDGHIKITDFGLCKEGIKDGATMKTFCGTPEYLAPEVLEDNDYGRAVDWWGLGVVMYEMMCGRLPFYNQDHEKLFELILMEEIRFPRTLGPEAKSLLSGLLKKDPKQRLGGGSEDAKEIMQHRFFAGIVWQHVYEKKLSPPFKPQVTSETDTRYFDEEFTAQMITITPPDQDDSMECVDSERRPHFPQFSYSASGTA

M032R6.X1. CL = experiment: 3-week colony formation assay; type: cell-based; conditions: PDX-derived cell line with high RPS6KB1
Description: (§2) (a-b) Phospho-RPS6KB profiles of two patient-derived xenografts (PDXs) tumor tissues (a) and related cell lines (b). PDXs were previously^4,5 established from patients refractory to BRAF^V600E-therapy. A limited number of primary cell lines were derived from these PDX's. (c) Sensitivity of primary melanoma cell lines to RPS6KB-inhibitor PF-4708671 in 3-week colony formation assays.
as §1

M061R.X1. CL = experiment: 3-week colony formation assay; type: cell-based; conditions: PDX-derived cell line without high RPS6KB1
Description: as §2, §1

LCK = LCK (Homo sapiens, UniProt P06239); conditions: literature reports; cited from earlier work
Chain of LCK (P06239 whole entry, species assumed): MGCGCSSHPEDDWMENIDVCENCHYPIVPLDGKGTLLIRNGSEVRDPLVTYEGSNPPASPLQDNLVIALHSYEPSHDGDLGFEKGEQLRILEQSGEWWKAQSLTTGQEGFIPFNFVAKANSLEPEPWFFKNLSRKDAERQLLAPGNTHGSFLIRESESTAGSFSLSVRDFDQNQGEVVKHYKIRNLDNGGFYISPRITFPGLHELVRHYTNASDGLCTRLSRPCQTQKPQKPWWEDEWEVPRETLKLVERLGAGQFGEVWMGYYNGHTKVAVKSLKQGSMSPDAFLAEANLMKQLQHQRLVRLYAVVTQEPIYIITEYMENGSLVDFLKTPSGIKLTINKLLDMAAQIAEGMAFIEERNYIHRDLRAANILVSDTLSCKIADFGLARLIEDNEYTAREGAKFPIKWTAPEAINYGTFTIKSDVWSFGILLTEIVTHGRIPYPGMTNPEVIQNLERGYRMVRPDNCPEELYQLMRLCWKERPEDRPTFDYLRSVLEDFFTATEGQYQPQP

WiDr cells = experiment: 3-day cell viability assay; type: cell-based; conditions: Homo sapiens, 72 h, read-out: GI50 concentration
Description: FIG. 20. Response of BRAF^V600E CRC cells to targeted therapy combinations. To validate the kinase activity signatures of VEM-resistant WiDr cells found by HT-KAM screen, and as a mean to assess the role of these kinases (AKT1, PDPK1, PRKCA, SGK1) as mediators of the response to VEM and their potential value as druggable vulnerabilities in our model, we used 3-day cell viability assays to monitor the response of cells to drug combinations.
as §1

A375 myrAKT1 cells = experiment: 3-day cell viability assay, myrAKT1-expressing cells; type: cell-based; conditions: myrAKT1-expressing vs control counterpart; p=2.77E-06
Description: FIG. 29. A375 expressing a constitutively active AKT1 oncogenic kinase remain sensitive to RPS6KB- or PIM-targeting. We exogenously expressed myrAKT1 (i.e. a constitutively active oncogenic AKT1) in A375 cells. We then tested the sensitivity of A375 myrAKT1 cells to drug combinations.
as §1

[2] = Homo sapiens, SK-MEL-28, 72 h, 0.25% FBS media
[3] = Homo sapiens, SK-MEL-28, 72 h, 5% FBS media
[4] = Homo sapiens, A-375, 72 h, 0.25% FBS media
[5] = Homo sapiens, A-375, 72 h, 5% FBS media

Row | GI50 (A375; 0.25% FBS media) [µM] | GI50 (A375; 5% FBS media) [µM] | GI50 (A375; [4]) [µM] | GI50 (A375; [5]) [µM] | SMILES | effect of combination with VEM on cell growth / combination index [1] | GI50 (Sk-Mel-28; 0.25% FBS media) [µM] | GI50 (Sk-Mel-28; 5% FBS media) [µM] | GI50 (Sk-Mel-28; [2]) [µM] | GI50 (Sk-Mel-28; [3]) [µM] | further results
1 | 12.5 | 12.5 | – | – | N[C@@H]1CCCN(c2c(/C=C3\SC(=O)NC3=O)cccc2-c2ccccc2)C1 [AZD1208] | strong growth inhibitory effects | 25 | 25 | – | – | –
2 | – | – | > 200 | 50 | Cn1cc(-c2ccc(F)c(C(F)(F)F)c2)nc1C1CCN(c2ncnc3[nH]ncc23)CC1 [LY2584702] | strong growth inhibitory effects | – | – | 100 | 100 | –
3 | – | – | 2.5 | 10 | NC1(c2ccc(-c3nc4ccn5c(=O)[nH]nc5c4cc3-c3ccccc3)cc2)CCC1 [MK2206] | – | – | – | 5 | 2.5 | effect on AKT1 activity (AKT1): effectively decreased AKT1 activity
4 | 16 | 32 | – | – | CCc1cncnc1N1CCN(Cc2nc3ccc(C(F)(F)F)cc3[nH]2)CC1 [PF-4708671] | strong growth inhibitory effects | 16 | 32 | – | – | sensitivity in colony formation (M032R6.X1. CL): sensitive; sensitivity in colony formation (M061R.X1. CL): not sensitive
5 | – | – | 0.02 | 0.15 | CCCS(=O)(=O)Nc1ccc(F)c(C(=O)c2c[nH]c3ncc(-c4ccc(Cl)cc4)cc23)c1F [VEM, vemurafenib] | – | – | – | 0.31 | 0.63 | GI50 (WiDr cells): 2 µM; increase in GI50 versus control A375 (A375 myrAKT1 cells): 65%

More lines, now with the values behind:

Row | SMILES | GI50 (A375; 0.25% FBS media) [µM] | GI50 (A375; 5% FBS media) [µM] | GI50 (A375; [4]) [µM] | GI50 (A375; [5]) [µM] | effect of combination with VEM on cell growth / combination index [1] | GI50 (Sk-Mel-28; 0.25% FBS media) [µM] | GI50 (Sk-Mel-28; 5% FBS media) [µM] | GI50 (Sk-Mel-28; [2]) [µM] | GI50 (Sk-Mel-28; [3]) [µM] | further results
6 | O=C1Cc2c([nH]c3ccc(Br)cc23)-c2ncccc2N1 [1-Azakenpaullone] | 2.5 | 20 | – | – | antagonizing the effects of VEM treatment | 10 | 20 | – | – | –
7 | CC(C)CCN1c2nc(Nc3cc(F)c(O)c(F)c3)ncc2N(C)C(=O)C1C (stereo not shown) [BI-D1870] | > 50 | 12.5 | – | – | additive effects only | 12.5 | 25 | – | – | –
8 | COc1ccc2c(c1)c(C1=C(c3c[nH]c4ccccc34)C(=O)NC1=O)cn2CCCN(C)C [Go6983] | – | – | – | – | limited additivity effects | – | – | – | – | –
9 | CN(C)S(=O)(=O)c1ccc2c(c1)/C(=C/c1cc3c([nH]1)CCCC3)C(=O)N2 [SU6656] | – | – | – | – | – | – | – | – | – | IC50 (LCK): > 5 µM
10 | CN1CCN(c2nc(C3=C(c4c[nH]c5ccccc45)C(=O)NC3=O)c3ccccc3n2)CC1 [Sotrastaurin, sotrastaurin] | – | – | – | – | limited additivity effects | – | – | – | – | –
11 | CO[C@H]1C[C@@H]2CC[C@@H](C)[C@@](O)(O2)C(=O)C(=O)N2CCCC[C@H]2C(=O)O[C@H]([C@H](C)C[C@@H]2CC[C@@H](OCCO)[C@H](OC)C2)CC(=O)[C@H](C)/C=C(\C)[C@@H](O)[C@@H](OC)C(=O)[C@H](C)C[C@H](C)/C=C/C=C/C=C/1C [everolimus] | – | – | 10 | 5 | – | – | – | 10 | 10 | –
12 | CC(=O)Nc1cccc(-n2c(=O)n(C3CC3)c(=O)c3c(Nc4ccc(I)cc4F)n(C)c(=O)c(C)c32)c1 [trametinib] | – | – | 0.0025 | 0.005 | – | – | – | 0.01 | 0.01 | –
